EP2678315B1, “(Pyridin-4-yl)benzylamides as allosteric modulators of alpha 7 nAChR” (Janssen Pharmaceutica, N.V., priority 2011, dated 2012)
Where two headings read alike, the source gives them in different places.

Biological target: T1, human alpha 7-wt nAChR (Homo sapiens, UniProt P36544)
T1 construct: expressed in transfected cells
Assay: Ca2+ flux imaging (FDSS) (protocol B)
Format: cell-based
Settings: for EC50: read-out: pEC50 (converted); for Emax: read-out: % Efficacy
Experimental: Example D.1 : Ca^2+ flux imaging (FDSS) (protocol B)
• a) Assay buffer Hanks buffered saline solution (HBSS, Invitrogen, Belgium), supplemented with 10 mM HEPES (Invitrogen, Belgium), CaCl2 to a final concentration of 5 mM, 0.1 % Bovine serum albumin (Sigma-Aldrich NV, Belgium). • b) Calcium-sensitive dye - Fluo-4AM Fluo-4AM (Molecular Probes, USA) was dissolved in DMSO containing 10% Pluronic acid (Molecular Probes, USA) to give a stock solution which was diluted in assay buffer supplemented with 5 mM probenicid (Sigma, Aldrich NV, Belgium) to give a final concentration of 2 µM • c) 384-well plates Black-sided, transparent bottomed 384 well plates coated with poly-D-lysine, PDL pre-coated (Coming, Incorporated, USA) • d) Calcium flux measurement A Functional drug screening system (FDSS, Hamamatsu) was used to measure intracellular free-calcium flux signals.
Monolayers of human alpha 7-wt nAChR-expressing cells were grown in black-sided, transparent bottomed 384 well plates coated with PDL for 24 hours prior to loading with a fluorescent calcium indicator, fluo-4AM for up to 120 minutes.
PAM activity was detected in real time by applying the compounds to be tested to the loaded cells along with an alpha 7 nicotinic receptor agonist during constant monitoring of cellular fluorescence in a FDSS. Compounds giving peak fluorescent responses greater than the response due to agonist alone, were consideted to be alpha 7 nAChR PAMs. The alpha 7 nicotinic receptor agonist was choline, applied at a sub-maximal concentration of 100 µM. In a further setting of the present invention the compounds were applied prior to the alpha 7 nicotinic receptor agonist, in a particular 10 minutes prior to the agonist.
A control response to choline was calculated on each plate from the difference in peak in fluorescence in wells receiving either choline or assay buffer alone. Compounds of the present invention were tested at a concentration range from 0.01 µM to 30 µM. Compounds were considered to have an interesting activity when they potentiated the choline signal at least with 200 % when tested at a concentration of 30 µM (the efficacy of 100 µM choline was defined as 100% in the absence of a PAM). An EC50 (or pEC50) was determined as a concentration relating to half the maximal effect, when a clear sigmoidal curve with top plateau was obtained.

T1 sequence (P36544 23-502): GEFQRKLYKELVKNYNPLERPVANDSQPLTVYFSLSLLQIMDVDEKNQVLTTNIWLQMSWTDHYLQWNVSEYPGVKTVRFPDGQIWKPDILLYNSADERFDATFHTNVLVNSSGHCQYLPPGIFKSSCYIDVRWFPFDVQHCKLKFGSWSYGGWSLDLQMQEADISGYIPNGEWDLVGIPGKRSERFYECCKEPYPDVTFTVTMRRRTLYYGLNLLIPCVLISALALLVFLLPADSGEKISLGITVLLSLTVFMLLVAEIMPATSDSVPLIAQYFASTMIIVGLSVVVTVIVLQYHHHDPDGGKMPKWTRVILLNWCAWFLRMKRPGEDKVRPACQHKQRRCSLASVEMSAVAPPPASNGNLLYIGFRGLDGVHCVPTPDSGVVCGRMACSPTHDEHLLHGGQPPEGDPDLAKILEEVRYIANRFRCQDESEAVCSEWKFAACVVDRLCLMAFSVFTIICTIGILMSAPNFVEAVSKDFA

For `Cc1cc(-c2ccc(N3C[C@@H](C)O[C@@H](C)C3)c(F)c2CNC(=O)C(C)C2CC2)cc(C)n1` (mixture of isomers) [Compound 50], which EC50 (Ca2+ assay as described in D.1) is on record?
The EC50 was 479 nM.

With `Cc1cc(-c2ccc(N3C[C@@H](C)O[C@@H](C)C3)cc2CNC(=O)C(C)C2CC2)cc(C)n1` (relative stereo) [Compound 8] as the compound, how does the EC50 (Ca2+ assay as described in D.1) read?
The EC50 was 24 nM.

What about the Emax of the same compound?
Its Emax is 353%.

How did the EC50 (Ca2+ assay as described in D.1) turn out when `Cc1cc(-c2ccc(C3C[C@@H](C)O[C@@H](C)C3)c(F)c2CNC(=O)CC2CC2)cc(C)n1` (relative stereo) [Compound 53] was run?
Its EC50 is 457 nM.

For `Cc1cc(-c2ccc(C3C[C@@H](C)O[C@@H](C)C3)c(F)c2CNC(=O)C2CC2)cc(C)n1` (relative stereo) [Compound 54], which EC50 (Ca2+ assay as described in D.1) is on record?
The EC50 was 1580 nM.

For `Cc1cc(-c2ccc(C3C[C@@H](C)O[C@@H](C)C3)c(F)c2CNC(=O)CC(C)C)cc(C)n1` (relative stereo) [Compound 55], which EC50 (Ca2+ assay as described in D.1) is on record?
Its EC50 is 229 nM.

And the Emax?
Its Emax is 890%.

For `Cc1cc(-c2ccc(C3C[C@@H](C)O[C@@H](C)C3)c(F)c2CNC(=O)CC2CCC2)cc(C)n1` (relative stereo) [Compound 60], which EC50 (Ca2+ assay as described in D.1) is on record?
The EC50 was 178 nM.

How did the EC50 (Ca2+ assay as described in D.1) turn out when `Cc1cc(-c2ccc(C3C[C@@H](C)O[C@@H](C)C3)c(F)c2CNC(=O)C(C)C)cc(C)n1` (relative stereo) [Compound 61] was run?
The EC50 was 871 nM.

How did the EC50 (Ca2+ assay as described in D.1) turn out when `Cc1cc(-c2ccc(C3C[C@@H](C)O[C@@H](C)C3)c(F)c2CNC(=O)c2cc(C)on2)cc(C)n1` (relative stereo) [Compound 62] was run?
The EC50 was 708 nM.

With `Cc1cc(-c2ccc(C3C[C@@H](C)O[C@@H](C)C3)c(F)c2CNC(=O)c2conc2C)cc(C)n1` (relative stereo) [Compound 63] as the compound, how does the EC50 (Ca2+ assay as described in D.1) read?
Its EC50 is 1070 nM.

Which EC50 (Ca2+ assay as described in D.1) does the source give for `Cc1cc(-c2ccc(N3C[C@@H](C)O[C@@H](C)C3)cc2CNC(=O)c2ccc(F)cc2C)cc(C)n1` [Compound 5] here?
Its EC50 is 9.33 nM.

`Cc1cc(-c2ccc(N3C[C@@H](C)O[C@@H](C)C3)cc2CNC(=O)CC(F)(F)F)cc(C)n1` [Compound 7] was tested. Which Emax (Ca2+ assay as described in D.1) did it give?
Its Emax is 287%.

For `Cc1cc(-c2ccc(N3C[C@@H](C)O[C@@H](C)C3)cc2CNC(=O)C(C)C)ccn1` [Compound 9], which EC50 (Ca2+ assay as described in D.1) is on record?
Its EC50 is 240 nM.

With `Cc1cc(-c2ccc(N3C[C@@H](C)O[C@@H](C)C3)cc2CNC(=O)c2cc(C)on2)ccn1` [Compound 10] as the compound, how does the EC50 (Ca2+ assay as described in D.1) read?
The EC50 was 1230 nM.

`Cc1cc(-c2ccc(N3C[C@@H](C)O[C@@H](C)C3)cc2CNC(=O)c2ccc(F)cc2C)ccn1` [Compound 11] was tested. Which EC50 (Ca2+ assay as described in D.1) did it give?
Its EC50 is 9.33 nM.

What about the Emax of the same compound?
The Emax was 912%.

For `Cc1cc(-c2ccc(N3C[C@@H](C)O[C@@H](C)C3)cc2CNC(=O)c2conc2C)ccn1` [Compound 12], which EC50 (Ca2+ assay as described in D.1) is on record?
Its EC50 is 166 nM.

What about the Emax of the same compound?
The Emax was 562%.

What does the source list for `Cc1cc(-c2ccc(N3C[C@@H](C)O[C@@H](C)C3)cc2CNC(=O)CC2CC2)ccn1` [Compound 13]?
EC50 (Ca2+ assay as described in D.1): 282 nM; Emax: 915%

For `Cc1cc(-c2ccc(N3C[C@@H](C)O[C@@H](C)C3)cc2CNC(=O)C2CC2)ccn1` [Compound 14], which EC50 (Ca2+ assay as described in D.1) is on record?
The EC50 was 589 nM.

`CC(C)C(=O)NCc1cc(N2C[C@@H](C)O[C@@H](C)C2)ccc1-c1ccncc1` [Compound 15] was tested. Which EC50 (Ca2+ assay as described in D.1) did it give?
The EC50 was 1100 nM.

What does the source list for `Cc1nocc1C(=O)NCc1cc(N2C[C@@H](C)O[C@@H](C)C2)ccc1-c1ccncc1` [Compound 17]?
EC50 (Ca2+ assay as described in D.1): 1660 nM; Emax: 681%

What does the source list for `Cc1cc(-c2ccc(N3C[C@H](C)C[C@H](C)C3)cc2CNC(=O)c2cc(C)on2)cc(C)n1` [Compound 18]?
EC50 (Ca2+ assay as described in D.1): 288 nM; Emax: 136%

What does the source list for `Cc1cc(-c2ccc(N3C[C@H](C(F)(F)F)C[C@H](C(F)(F)F)C3)cc2CNC(=O)c2conc2C)cc(C)n1` [Compound 19]?
EC50 (Ca2+ assay as described in D.1): 50.1 nM; Emax: 266%

What does the source list for `Cc1cc(-c2ccc(N3C[C@H](C(F)(F)F)C[C@H](C(F)(F)F)C3)cc2CNC(=O)c2ccc(F)cc2C)cc(C)n1` [Compound 20]?
EC50 (Ca2+ assay as described in D.1): 11 nM; Emax: 466%

For `Cc1cc(-c2ccc(N3C[C@H](C(F)(F)F)C[C@H](C(F)(F)F)C3)cc2CNC(=O)c2cc(C)on2)cc(C)n1` [Compound 21], which EC50 (Ca2+ assay as described in D.1) is on record?
Its EC50 is 126 nM.

And the Emax?
Its Emax is 541%.

With `Cc1cc(-c2ccc(N3C[C@H](C(F)(F)F)C[C@H](C(F)(F)F)C3)cc2CNC(=O)CC2CC2)cc(C)n1` [Compound 22] as the compound, how does the EC50 (Ca2+ assay as described in D.1) read?
The EC50 was 16.2 nM.

And the Emax?
The Emax was 458%.
